What was measured:
Assay in all cases: Cell panel screen (CellTiter-Glo)
Format in all cases: cell-based, human
[1] = system: HCC1395; details: HCC1395 (Breast), 20 micromolar, 72 hrs
Summary of the method: (§1)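 Values are % growth inhibition: the signal of treated wells was set against untreated (DMSO) wells, with cell-free wells as background. Treatment lasted 72 h at 20 μM final compound, and ATP content was read by luminescence.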

[2] = system: T47D; details: T47D (Breast), 20 micromolar, 72 hrs
Summary of the method: as §1

[3] = system: HGC-27; details: HGC-27 (Stomach), 20 micromolar, 72 hrs
Summary of the method: as §1

[4] = system: T98G; details: T98G (Brain), 20 micromolar, 72 hrs
Summary of the method: as §1

[5] = system: NCI-H524; details: NCI-H524 (Lung), 20 micromolar, 72 hrs
Summary of the method: as §1

[6] = system: HCC1599; details: HCC1599 (Breast), 20 micromolar, 72 hrs
Summary of the method: as §1

[7] = system: HEC-1-A; details: HEC-1-A (Uterus), 20 micromolar, 72 hrs
Summary of the method: as §1

[8] = system: NCI-H1694; details: NCI-H1694 (Lung), 20 micromolar, 72 hrs
Summary of the method: as §1

[9] = system: Panc 03.27; details: Panc 03.27 (Pancreas), 20 micromolar, 72 hrs
Summary of the method: as §1

[10] = system: ZR-75-30; details: ZR-75-30 (Breast), 20 micromolar, 72 hrs
Summary of the method: as §1

[11] = system: TCCSUP; details: TCCSUP (Urinary bladder), 20 micromolar, 72 hrs
Summary of the method: as §1

[12] = system: A704; details: A704 (Kidney), 20 micromolar, 72 hrs
Summary of the method: as §1

[13] = system: NCI-H2347; details: NCI-H2347 (Lung), 20 micromolar, 72 hrs
Summary of the method: as §1

[14] = system: C3A; details: C3A (Liver), 20 micromolar, 72 hrs
Summary of the method: as §1

[15] = system: CW-2; details: CW-2 (Colon), 20 micromolar, 72 hrs
Summary of the method: as §1

[16] = system: J82; details: J82 (Urinary bladder), 20 micromolar, 72 hrs
Summary of the method: as §1

[17] = system: HPAF-II; details: HPAF-II (Pancreas), 20 micromolar, 72 hrs
Summary of the method: as §1

[18] = system: HCC1937; details: HCC1937 (Breast), 20 micromolar, 72 hrs
Summary of the method: as §1

[19] = system: M059J; details: M059J (Brain), 20 micromolar, 72 hrs
Summary of the method: as §1

[20] = system: Colo 205; details: Colo 205, 20 micromolar, 72 hrs
Summary of the method: as §1

[21] = system: NCI-H28; details: NCI-H28 (Lung), 20 micromolar, 72 hrs
Summary of the method: as §1

[22] = system: NCI-H2405; details: NCI-H2405 (Lung), 20 micromolar, 72 hrs
Summary of the method: as §1

[23] = system: NCI-H1623; details: NCI-H1623 (Lung), 20 micromolar, 72 hrs
Summary of the method: as §1

[24] = system: NCI-H1770; details: NCI-H1770 (Lung), 20 micromolar, 72 hrs
Summary of the method: as §1

[25] = system: Bel-7402; details: Bel-7402 (Liver), 20 micromolar, 72 hrs
Summary of the method: as §1

[26] = system: HCC1569; details: HCC1569 (Breast), 20 micromolar, 72 hrs
Summary of the method: as §1

[27] = system: RL95; details: RL95 (Uterus), 20 micromolar, 72 hrs
Summary of the method: as §1

[28] = system: C8166; details: C8166 (Leukemia), 20 micromolar, 72 hrs
Summary of the method: as §1

[29] = system: BT-549; details: BT-549 (Breast), 20 micromolar, 72 hrs
Summary of the method: as §1

[30] = system: MSTO-211-H; details: MSTO-211-H (Lung), 20 micromolar, 72 hrs
Summary of the method: as §1

[31] = system: A498; details: A498 (listed under Lung), 20 micromolar, 72 hrs
Summary of the method: as §1

[32] = system: CCF-STTG1; details: CCF-STTG1 (Brain), 20 micromolar, 72 hrs
Summary of the method: as §1

[33] = system: ChaGo-K-1; details: ChaGo-K-1 (Lung), 20 micromolar, 72 hrs
Summary of the method: as §1

[34] = system: HT-1197; details: HT-1197 (Urinary bladder), 20 micromolar, 72 hrs
Summary of the method: as §1

[35] = system: BT-474; details: BT-474 (Breast), 20 micromolar, 72 hrs
Summary of the method: as §1

[36] = system: SW13; details: SW13 (Adrenal gland), 20 micromolar, 72 hrs
Summary of the method: as §1

[37] = Homo sapiens, read-out: Percent Inhibition

**Q.** With CC(C)=CCCC1(C)C=Cc2c(O)c3c(c(CC=C(C)C)c2O1)OC12C(=CC4CC1C(C)(C)OC2(CC=C(C)C(=O)O)C4=O)C3=O (mixture of isomers) [GB8] as the compound, how does the “Percent Inhibition” value [1] read?
**A.** 99%

**Q.** And the “Percent Inhibition” value [2]?
**A.** 100%

**Q.** And the “Percent Inhibition” value [3]?
**A.** 100%

**Q.** And the “Percent Inhibition” value [4]?
**A.** 100%

**Q.** And the “Percent Inhibition” value [5]?
**A.** 98%

**Q.** And the “Percent Inhibition” value [6]?
**A.** 100%

**Q.** What about the “Percent Inhibition” value [7] of the same compound?
**A.** 100%

**Q.** And the “Percent Inhibition” value [8]?
**A.** 100%

**Q.** What about the “Percent Inhibition” value [9] of the same compound?
**A.** 99%

**Q.** And the “Percent Inhibition” value [10]?
**A.** 99%

**Q.** What about the “Percent Inhibition” value [11] of the same compound?
**A.** 100%

**Q.** What about the “Percent Inhibition” value [12] of the same compound?
**A.** 99%

**Q.** And the “Percent Inhibition” value [13]?
**A.** 99%

**Q.** What about the “Percent Inhibition” value [14] of the same compound?
**A.** 99%

**Q.** What about the “Percent Inhibition” value [15] of the same compound?
**A.** 99%

**Q.** What about the “Percent Inhibition” value [16] of the same compound?
**A.** 99%

**Q.** What about the “Percent Inhibition” value [17] of the same compound?
**A.** 99%

**Q.** What about the “Percent Inhibition” value [18] of the same compound?
**A.** 100%

**Q.** And the “Percent Inhibition” value [19]?
**A.** 100%

**Q.** What about the “Percent Inhibition” value [20] of the same compound?
**A.** 99%

**Q.** And the “Percent Inhibition” value [21]?
**A.** 99%

**Q.** What about the “Percent Inhibition” value [22] of the same compound?
**A.** 99%

**Q.** What about the “Percent Inhibition” value [23] of the same compound?
**A.** 99%

**Q.** And the “Percent Inhibition” value [24]?
**A.** 100%

**Q.** What about the “Percent Inhibition” value [25] of the same compound?
**A.** 99%

**Q.** What about the “Percent Inhibition” value [26] of the same compound?
**A.** 100%

**Q.** And the “Percent Inhibition” value [27]?
**A.** 100%

**Q.** What about the “Percent Inhibition” value [28] of the same compound?
**A.** 100%

**Q.** And the “Percent Inhibition” value [29]?
**A.** 100%

**Q.** What about the “Percent Inhibition” value [30] of the same compound?
**A.** 100%

**Q.** And the “Percent Inhibition” value [31]?
**A.** 99%

**Q.** What about the “Percent Inhibition” value [32] of the same compound?
**A.** 99%

**Q.** What about the “Percent Inhibition” value [33] of the same compound?
**A.** 99%

**Q.** And the “Percent Inhibition” value [34]?
**A.** 99%

**Q.** And the “Percent Inhibition” value [35]?
**A.** 99%

**Q.** What about the “Percent Inhibition” value [36] of the same compound?
**A.** 99%

**Q.** Which results are given for CC(C)=CCc1c(O)cc2oc3c(CC=C(C)C)c(O)c(O)c(CC=C(C)C)c3c(=O)c2c1O [bn-1, Garcinone E]?
**A.** inhibition at 20 µM [1, 37]: 100%; inhibition at 20 µM [2, 37]: 82%; inhibition at 20 µM [3, 37]: 99%; inhibition at 20 µM [4, 37]: 100%; inhibition at 20 µM [5, 37]: 100%; inhibition at 20 µM [6, 37]: 98%; inhibition at 20 µM [7, 37]: 87%; inhibition at 20 µM [8, 37]: 100%; inhibition at 20 µM ([9]; Homo sapiens, PANC-03-27, read-out: Percent Inhibition): 90%; inhibition at 20 µM [10, 37]: 99%; inhibition at 20 µM ([11]; Homo sapiens, TCC-SUP, read-out: Percent Inhibition): 97%; inhibition at 20 µM [12, 37]: 98%; inhibition at 20 µM [13, 37]: 79%; inhibition at 20 µM [14, 37]: 90%; inhibition at 20 µM [15, 37]: 99%; inhibition at 20 µM [16, 37]: 98%; inhibition at 20 µM [17, 37]: 90%; inhibition at 20 µM [18, 37]: 97%; inhibition at 20 µM [19, 37]: 95%; inhibition at 20 µM [20, 37]: 98%; inhibition at 20 µM [21, 37]: 95%; inhibition at 20 µM [22, 37]: 93%; inhibition at 20 µM [23, 37]: 91%; inhibition at 20 µM [24, 37]: 93%; inhibition at 20 µM [25, 37]: 98%; inhibition at 20 µM [26, 37]: 96%; inhibition at 20 µM [27, 37]: 99%; inhibition at 20 µM [28, 37]: 99%; inhibition at 20 µM [29, 37]: 98%; inhibition at 20 µM [30, 37]: 98%; inhibition at 20 µM [31, 37]: 98%; inhibition at 20 µM [32, 37]: 89%; inhibition at 20 µM [33, 37]: 99%; inhibition at 20 µM ([34]; Homo sapiens, HT1197, read-out: Percent Inhibition): 97%; inhibition at 20 µM [35, 37]: 87%; inhibition at 20 µM [36, 37]: 97%

**Q.** For Bannaxanthone G [bn-21], which “Percent Inhibition” value [1] is on record?
**A.** 95%

**Q.** And the “Percent Inhibition” value [2]?
**A.** 64%

**Q.** What about the “Percent Inhibition” value [3] of the same compound?
**A.** 84%

**Q.** And the “Percent Inhibition” value [4]?
**A.** 77%

**Q.** What about the “Percent Inhibition” value [5] of the same compound?
**A.** 100%

**Q.** And the “Percent Inhibition” value [6]?
**A.** 97%

**Q.** And the “Percent Inhibition” value [7]?
**A.** 71%

**Q.** What about the “Percent Inhibition” value [8] of the same compound?
**A.** 100%

**Q.** What about the “Percent Inhibition” value [9] of the same compound?
**A.** 95%

**Q.** What about the “Percent Inhibition” value [10] of the same compound?
**A.** 99%

**Q.** And the “Percent Inhibition” value [11]?
**A.** 84%

**Q.** What about the “Percent Inhibition” value [12] of the same compound?
**A.** 64%

**Q.** What about the “Percent Inhibition” value [13] of the same compound?
**A.** 75%

**Q.** And the “Percent Inhibition” value [14]?
**A.** 62%

**Q.** What about the “Percent Inhibition” value [15] of the same compound?
**A.** 99%

**Q.** And the “Percent Inhibition” value [16]?
**A.** 88%

**Q.** What about the “Percent Inhibition” value [17] of the same compound?
**A.** 84%

**Q.** And the “Percent Inhibition” value [18]?
**A.** 92%

**Q.** And the “Percent Inhibition” value [19]?
**A.** 94%

**Q.** And the “Percent Inhibition” value [20]?
**A.** 100%

**Q.** What about the “Percent Inhibition” value [21] of the same compound?
**A.** 73%

**Q.** What about the “Percent Inhibition” value [22] of the same compound?
**A.** 80%

**Q.** What about the “Percent Inhibition” value [23] of the same compound?
**A.** 72%

**Q.** What about the “Percent Inhibition” value [24] of the same compound?
**A.** 94%

**Q.** And the “Percent Inhibition” value [25]?
**A.** 93%

**Q.** And the “Percent Inhibition” value [26]?
**A.** 76%

**Q.** And the “Percent Inhibition” value [27]?
**A.** 88%

**Q.** What about the “Percent Inhibition” value [28] of the same compound?
**A.** 90%

**Q.** And the “Percent Inhibition” value [29]?
**A.** 70%

**Q.** And the “Percent Inhibition” value [30]?
**A.** 90%

**Q.** And the “Percent Inhibition” value [31]?
**A.** 60%

**Q.** What about the “Percent Inhibition” value [32] of the same compound?
**A.** 68%

**Q.** What about the “Percent Inhibition” value [33] of the same compound?
**A.** 95%

**Q.** And the “Percent Inhibition” value [34]?
**A.** 91%

**Q.** And the “Percent Inhibition” value [35]?
**A.** 88%

**Q.** What about the “Percent Inhibition” value [36] of the same compound?
**A.** 92%

Source: paper PMC4450297, “Screening Active Compounds from Garcinia Species Native to China Reveals Novel Compounds Targeting the STAT/JAK Signaling Pathway” (BioMed Research International, 2015)
